Source: US20220226348A1, “METHOD AND COMPOSITION FOR TREATMENT OF SKIN DISEASES ASSOCIATED WITH ACCELERATED CORNEODESMOSOMES DEGRADATION OR WEAKER CELL-CELL ADHESION” (ICHILOV TECH LTD, priority 2019, published 2022)

Experiments:
CDSN = CDSN expression at the mRNA level in keratinocytes; type: cell-based
corneodesmosin = assay: Corneodesmosin protein expression by immunoblotting, normalized to β-actin; type: cell-based; conditions: human primary keratinocytes, immunoblot
Excerpt: Using a high throughput screening of small molecule libraries, utilizing green fluorescent protein (GFP) base reporter system and western blot analysis for validation of the results, it has now been found, in accordance with the present invention, that betulinic acid (which is already used as topical treatment on human skin, and capable of penetrating into the skin and be active in the epidermis while showing excellent safty profile) is capable of boosting corneodesmosin biosynthesis, and when administered to keratinocytes, it increases corneodesmosin expression by more than 3-fold (FIGS. 1-2), and may thus be used as an inducer of corneodesmosin expression in patients suffering from skin diseases or disorders associated with accelerated corneodesmosomes degradation and/or weaker cell-cell adhesion.
Corneodesmosin protein levels were quantified and normalized to β-actin protein levels and presented as corneodesmosin fold expression relative to normal keratinocytes treated with DMSO. […] The other compounds shown in the figure are 5-aminolevulinic acid hydrochloride (5-ALA; #1), piperlongumine (#2), thiostrepton (#3), obatoclax mesylate (GX15-070; #5), BI 2536 (CAS No.: 755038-02-9; #6), PHA-665752 (CAS No.: 477575-56-7 (anhydrous; #7), YH239-EE (CAS No.: 1364488-67-4; #8), PF-562271 (CAS No.: 717907-75-0; #9), and BI-D1870 (CAS No.: 501437-28-1; #10).

C=C(C)[C@@H]1CC[C@]2(C(=O)O)CC[C@]3(C)[C@H](CC[C@@H]4[C@@]5(C)CC[C@H](O)C(C)(C)[C@@H]5CC[C@]43C)[C@@H]12 [betulinic acid]
CDSN expression at the mRNA level relative to DMSO-treated normal keratinocytes (CDSN): 2 fold | corneodesmosin fold expression relative to normal keratinocytes treated with DMSO (corneodesmosin): more than 3 fold
